The supplement of paper PMC13207355

Experiments:
Details in all cases: exposure time: 72 h
E21 [1] = patient-derived glioblastoma stem cells of mesenchymal subtype; assay: phenotypic distance (Euclidean, principal components) from DMSO controls (arbitrary units); higher = stronger morphological change
E13 [2] = patient-derived glioblastoma stem cells of classical subtype; assay: as above
E28 [3] = patient-derived glioblastoma stem cells of classical subtype; assay: as above
E34 [4] = patient-derived glioblastoma stem cells of proneural subtype; assay: as above
E31 [5] = patient-derived glioblastoma stem cells of proneural subtype; assay: as above
E57 [6] = patient-derived glioblastoma stem cells of mesenchymal subtype; assay: as above
FT3469 [7] = normal neural stem cell line; assay: as above
E21 [8] = assay: surviving fraction (nuclei count normalised to DMSO); higher = more cells surviving (less toxic)
E13 [9] = assay: as above
E28 [10] = assay: as above
E34 [11] = assay: as above
E31 [12] = assay: as above
E57 [13] = assay: as above
FT3469 [14] = assay: as above
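Throughout, for phenotypic distance (Euclidean, principal components) from DMSO controls: cell Painting imaging in 384-well plates, CellProfiler features reduced to at least 20 principal components, Euclidean distance versus same-plate DMSO vehicle wells (0.1% v/v), median over six images per well.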
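Throughout, for surviving fraction (nuclei count normalised to DMSO): nuclei counted by high-content imaging of Hoechst-stained cells in laminin-coated 384-well plates, relative to 0.1% DMSO vehicle wells, with staurosporine as cell-death control.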

COc1cc(NS(C)(=O)=O)ccc1Nc1c2ccccc2nc2ccccc12 [Amsacrine]
Details	phenotypic distance	surviving fraction
E13 [2], 4.1 nM	0.565	–
E13 [2], 12.3 nM	1.43	–
E13 [2], 37 nM	4.51	–
E13 [2], 111.1 nM	6.51	–
E13 [2], 333.3 nM	6.57	–
E13 [2], 1000 nM	6.84	–
E13 [2], 3000 nM	7.75	–
E13 [9], 4.1 nM	–	0.946
E13 [9], 12.3 nM	–	0.807
E13 [9], 37 nM	–	0.489
E13 [9], 111.1 nM	–	0.414
E13 [9], 333.3 nM	–	0.414
E13 [9], 1000 nM	–	0.387
E13 [9], 3000 nM	–	0.132
E21 [1], 4.1 nM	0.893	–
E21 [1], 12.3 nM	1.83	–
E21 [1], 37 nM	2.5	–
E21 [1], 111.1 nM	6.57	–
E21 [1], 333.3 nM	6.68	–
E21 [1], 1000 nM	5.68	–
E21 [1], 3000 nM	7.87	–
E21 [8], 4.1 nM	–	0.908
E21 [8], 12.3 nM	–	1.08
E21 [8], 37 nM	–	0.72
E21 [8], 111.1 nM	–	0.45
E21 [8], 333.3 nM	–	0.388
E21 [8], 1000 nM	–	0.197
E21 [8], 3000 nM	–	0.0813
E28 [3], 4.1 nM	1.15	–
E28 [3], 12.3 nM	2.1	–
E28 [3], 37 nM	3.15	–
E28 [3], 111.1 nM	2.93	–
E28 [3], 333.3 nM	3.24	–
E28 [3], 1000 nM	3.28	–
E28 [3], 3000 nM	4.07	–
E28 [10], 4.1 nM	–	0.875
E28 [10], 12.3 nM	–	0.529
E28 [10], 37 nM	–	0.427
E28 [10], 111.1 nM	–	0.474
E28 [10], 333.3 nM	–	0.374
E28 [10], 1000 nM	–	0.467
E28 [10], 3000 nM	–	0.126
E31 [5], 4.1 nM	1.63	–
E31 [5], 12.3 nM	3.02	–
E31 [5], 37 nM	3.7	–
E31 [5], 111.1 nM	3.82	–
E31 [5], 333.3 nM	2.97	–
E31 [5], 1000 nM	3	–
E31 [5], 3000 nM	6.79	–
E31 [12], 4.1 nM	–	0.573
E31 [12], 12.3 nM	–	0.509
E31 [12], 37 nM	–	0.314
E31 [12], 111.1 nM	–	0.247
E31 [12], 333.3 nM	–	0.288
E31 [12], 1000 nM	–	0.244
E31 [12], 3000 nM	–	0.0342
E34 [4], 4.1 nM	0.614	–
E34 [4], 12.3 nM	1.45	–
E34 [4], 37 nM	2.78	–
E34 [4], 111.1 nM	6.15	–
E34 [4], 333.3 nM	5.83	–
E34 [4], 1000 nM	4.78	–
E34 [4], 3000 nM	3.81	–
E34 [11], 4.1 nM	–	0.977
E34 [11], 12.3 nM	–	0.867
E34 [11], 37 nM	–	0.823
E34 [11], 111.1 nM	–	0.552
E34 [11], 333.3 nM	–	0.493
E34 [11], 1000 nM	–	0.484
E34 [11], 3000 nM	–	0.379
E57 [6], 4.1 nM	0.741	–
E57 [6], 12.3 nM	2.05	–
E57 [6], 37 nM	4.75	–
E57 [6], 111.1 nM	10.6	–
E57 [6], 333.3 nM	10.7	–
E57 [6], 1000 nM	8.66	–
E57 [6], 3000 nM	6.92	–
E57 [13], 4.1 nM	–	0.935
E57 [13], 12.3 nM	–	0.759
E57 [13], 37 nM	–	0.484
E57 [13], 111.1 nM	–	0.21
E57 [13], 333.3 nM	–	0.192
E57 [13], 1000 nM	–	0.161
E57 [13], 3000 nM	–	0.0825
FT3469 [7], 4.1 nM	0.866	–
FT3469 [7], 12.3 nM	1.42	–
FT3469 [7], 37 nM	1.99	–
FT3469 [7], 111.1 nM	2.25	–
FT3469 [7], 333.3 nM	2.14	–
FT3469 [7], 1000 nM	2.2	–
FT3469 [7], 3000 nM	3.03	–
FT3469 [14], 4.1 nM	–	0.745
FT3469 [14], 12.3 nM	–	0.751
FT3469 [14], 37 nM	–	0.593
FT3469 [14], 111.1 nM	–	0.731
FT3469 [14], 333.3 nM	–	0.745
FT3469 [14], 1000 nM	–	0.645
FT3469 [14], 3000 nM	–	0.363
